US10792282B2, “Protein kinase C inhibitors and uses thereof” (Rigel Pharmaceuticals, Inc., priority 2013, dated 2020)
Where two headings read alike, the source gives them in different places.

Tested on: PKC mediated IL-2 production
Experiment: IL-2 ELISA, human primary T cell, anti CD3+CD28+ (whole cell functional assay)
Format: cell-based
Experimental: Human primary T cells were prepared as follows. Fresh PBMC's from All Cells (Cat # PB002) were re-suspended in RPMI (RPMI-1640 with L-Glutamine; Mediatech, Inc., Herndon Va., cat. #10-040-CM) with 10% FBS and seeded into flasks and incubated at 37° C. for 2 hours to allow the monocytes to adhere. The non-adherent cells were then centrifuged and re-suspended in RPMI medium containing 40 U/ml IL2 and seeded into a flask pre-coated with 1 μg/ml aCD3 and 5 ug/ml aCD28 (Anti-Human CD3, BD Pharmingen Catalog #555336, Anti-Human CD28, Beckman Coulter Catalog # IM1376). The cells were stimulated for 3-4 days, then transferred to a fresh flask and maintained in RPMI (RPMI-1640 with L-Glutamine; Mediatech, Inc., Herndon Va., cat. #10-040-CM) with 10% FBS and 40 U/ml IL-2.
(§1) Human primary T cells (100,000 cells per well) were pre-incubated with or without test compound in RPMI-1640 with L-Glutamine and 10% FBS for 1 hour at 37° C. Cells were then stimulated by transferring them to round-bottom 96-well plates pre-coated with 1 μg/ml αCD3 and 5 μg/ml αCD28. For counter assay, cells were instead stimulated by adding 8× stock solutions of PMA and ionomycin in RPMI-1640 with L-Glutamine and 10% FBS (for final concentrations of 0.5 ng/ml PMA and 0.1 μM ionomycin, both from Calbiochem). Cells were incubated at 37° C. for 24 hours before 100 μL supernatants were harvested for quantification of IL-2 by ELISA using Human IL-2 Duoset ELISA Kit from R and D Systems, Cat. # DY202E.
Compounds 1-90 were tested in a whole cell functional assay for PKC mediated IL-2 production as follows. Human primary T cell isolation and culture: Human primary T cells were prepared as follows. Whole blood was obtained from a healthy volunteer, mixed 1:1 with PBS, layered on to Ficoll Hypaque (Amersham Pharmacia Biotech, Piscataway, N.J., Catalog #17-1440-03) in 2:1 blood/PBS:ficoll ratio and centrifuged for 30 minutes at 4° C. at 1750 rpm. The cells at the serum: ficoll interface were recovered and washed twice with 5 volumes of PBS. These freshly isolated human peripheral blood mononuclear cells were cultured in Yssel's medium containing 40 U/ml IL2 in a flask pre-coated with 1 μg/ml αCD3 and 5 μg/ml αCD28 (Anti-Human CD3, BD Pharmingen Catalog #555336, Anti-Human CD28, Beckman Coulter Catalog # IM1376). The cells were stimulated for 3-4 days, then transferred to a fresh flask and maintained in RPMI (RPMI-1640 with L-Glutamine; Mediatech, Inc., Herndon Va., cat. #10-040-CM) with 10% FBS and 40 U/ml IL-2. The primary T-cells were then washed twice with PBS to remove the IL-2.
as §1, with “Primary T cell stimulation and IL2 ELISA: Human primary” for “Human primary”, “compound in Yssel's medium for 1” for “compound in RPMI-1640 with L-Glutamine and 10% FBS for 1”, “ionomycin in Yssels (for final” for “ionomycin in RPMI-1640 with L-Glutamine and 10% FBS (for final”, “and 0.1 uM ionomycin, both” for “and 0.1 μM ionomycin, both”

[1] = Homo sapiens, T-cell, 24 h, IL-2 production, human primary T cells stimulated with αCD3 and αCD28, 24 hours, IL-2 by ELISA, read-out: EC50
[2] = Homo sapiens, T-cell, human primary T cells stimulated with αCD3 and αCD28, IL-2 by ELISA, read-out: EC50 (blocked IL-2 production)
[3] = IL-2 production, human primary T cells stimulated with αCD3 and αCD28, 24 hours, IL-2 by ELISA, read-out: EC50

| SMILES | EC50 [1] [nM] | EC50 [2] [nM] | EC50 [3] [nM] |
| --- | --- | --- | --- |
| CC1C(Nc2nc(Nc3cc(-n4nnn(C)c4=O)c(C4CC4)cc3F)ncc2F)CC(C)(C)N2CCCC12 (single isomer, unassigned) [Compound 69, 1-(5-(5-Fluoro-4-(octahydro-5,5,8-trimethylindolizin-7-ylamino)pyrimidin-2-ylamino)-2-cyclopropyl-4-fluorophenyl)-4-methyl-1H-tetrazol-5(4H)-one] | < 1000 | < 10000 | – |
| Cc1nnnn1-c1cc(Nc2ncc(F)c(NC3CC(C)(C)N4CCCC4C3C)n2)ccc1F (single isomer, unassigned) [Compound 70, 5-Fluoro-N2-(4-fluoro-3-(5-methyl-1H-tetrazol-1-yl)phenyl)-N4-(octahydro-5,5,8-trimethylindolizin-7-yl)pyrimidine-2,4-diamine] | < 10000 | < 10000 | – |
| CC1(C)Oc2ccc(Nc3ncc(F)c(NC4CC5CCCN5C(C)(C)C4)n3)cc2-n2nnnc21 (stereo not shown) [Compound 1, N2-(4,4-dimethyl-4H-benzo[b]tetrazolo[1,5-d][1,4]oxazin-8-yl)-5-fluoro-N4-(octahydro-5,5-dimethylindolizin-7-amine)pyrimidine-2,4-diamine] | – | – | < 500 |
| CC1(C)Oc2ccc(Nc3ncc(F)c(NC4CC5CCCN5C(C)(C)C4)n3)cc2-n2nnnc21 (stereo not shown) [Compound 3, N2-(4,4-dimethyl-4H-benzo[b]tetrazolo[1,5-d][1,4]oxazin-8-yl)-5-fluoro-N4-(octahydro-5,5-dimethylindolizin-7-amine)pyrimidine-2,4-diamine] | – | – | < 1000 |
| CC1(C)Oc2ccc(Nc3ncc(F)c(NC4CC5CCCN5C(C)(C)C4)n3)cc2-n2nnnc21 (stereo not shown) [Compound 4, N2-(4,4-dimethyl-4H-benzo[b]tetrazolo[1,5-d][1,4]oxazin-8-yl)-5-fluoro-N4-(octahydro-5,5-dimethylindolizin-7-amine)pyrimidine-2,4-diamine] | – | – | < 10000 |
| CC(C)N1CCC(Oc2ccc(Nc3ncc(F)c(NC4CC5CCCN5C(C)(C)C4)n3)cc2OC(F)F)CC1 (stereo not shown) [Compound 6, (R/S, S/R, R/R, S/S)—N^2-(4-(1-isopropylpiperidin-4-yloxy)-3-(difluoromethoxy)phenyl)-5-fluoro-N^4-(octahydro-5,5-dimethylindolizin-7-yl)pyrimidine-2,4-diamine] | – | – | < 500 |
| CC(C)N1CCC(Oc2ccc(Nc3ncc(F)c(NC4CC5CCCN5C(C)(C)C4)n3)cc2OC(F)F)CC1 (stereo not shown) [Compound 7, (R/S, S/R, R/R, S/S)—N^2-(4-(1-isopropylpiperidin-4-yloxy)-3-(difluoromethoxy)phenyl)-5-fluoro-N^4-(octahydro-5,5-dimethylindolizin-7-yl)pyrimidine-2,4-diamine] | – | – | < 10000 |
| CC(C)N1CCC(Oc2ccc(Nc3ncc(F)c(NC4CC5CCCN5C(C)(C)C4)n3)cc2OC(F)F)CC1 (stereo not shown) [Compound 8, (R/S, S/R, R/R, S/S)—N^2-(4-(1-isopropylpiperidin-4-yloxy)-3-(difluoromethoxy)phenyl)-5-fluoro-N^4-(octahydro-5,5-dimethylindolizin-7-yl)pyrimidine-2,4-diamine] | – | – | < 1000 |
| CC(C)N1CCC(Oc2ccc(Nc3ncc(F)c(NC4CC5CCCN5C(C)(C)C4)n3)cc2OC(F)F)CC1 (stereo not shown) [Compound 9, (R/S, S/R, R/R, S/S)—N^2-(4-(1-isopropylpiperidin-4-yloxy)-3-(difluoromethoxy)phenyl)-5-fluoro-N^4-(octahydro-5,5-dimethylindolizin-7-yl)pyrimidine-2,4-diamine] | – | – | < 500 |
| CC(C)N1CCC(Oc2ccc(Nc3ncc(F)c(NC4CC5CCCN5C(C)(C)C4)n3)cc2OC(F)F)CC1 (stereo not shown) [Compound 10, (R/S, S/R, R/R, S/S)—N^2-(4-(1-isopropylpiperidin-4-yloxy)-3-(difluoromethoxy)phenyl)-5-fluoro-N^4-(octahydro-5,5-dimethylindolizin-7-yl)pyrimidine-2,4-diamine] | – | – | < 500 |
| COc1cc(Nc2ncc(F)c(NC3CC4CCCN4C(C)(C)C3)n2)cc(-n2nnnc2C)c1 (stereo not shown) [Compound 11, (R/S, S/R, R/R, S/S)-5-fluoro-N4-(octahydro-5,5-dimethylindolizin-7-yl)N2-(3-methoxy-5-(5-methyl-1H-tetrazol-1-yl)phenyl)pyrimidine-2,4-diamine] | – | – | < 10000 |
